From patent US10889610B2, “Alpha-D-galactoside inhibitors of galectins” (GALECTO BIOTECH AB, priority 2016, dated 2021)

Legend:
[1] = test system: galectins; conditions: cited from earlier work
[2] = target: galectin-3 (Homo sapiens (Human), UniProt P17931); experiment: Fluorescence anisotropy assay, galectin-3 affinity; assay type: binding; conditions: inhibition of galectin / fluorescein tagged saccharide probe interaction
Experimental: Anal. Biochem. 334: 36-47, (Sörme et al., 2004) and Monovalent interactions of Galectin-1 By Salomonsson, Emma; Larumbe, Amaia; Tejler, Johan; Tullberg, Erik; Rydberg, Hanna; Sundin, Anders; Khabut, Areej; Frejd, Torbjorn; Lobsanov, Yuri D.; Rini, James M.; et al, From Biochemistry (2010), 49(44), 9518-9532, (Salomonsson et al., 2010). […] 100 nM albumin was included as a carrier to prevent protein loss at such low concentration of galectin.

[3] = target: galectin-1 (Homo sapiens (Human), UniProt P09382); experiment: Fluorescence anisotropy assay, galectin-1 affinity; assay type: binding; conditions: inhibition of galectin / fluorescein tagged saccharide probe interaction
Experimental: The affinity of Example 1-22 for galectins were determined by a fluorescence anisotropy assay where the compound was used as an inhibitor of the interaction between galectin and a fluorescein tagged saccharide probe as described Sörme, P., Kahl-Knutsson, B., Huflejt, M., Nilsson, U. J., and Leffler H. (2004) Fluorescence polarization as an analytical tool to evaluate galectin-ligand interactions. Anal. Biochem. 334: 36-47, (Sörme et al., 2004) and Monovalent interactions of Galectin-1 By Salomonsson, Emma; Larumbe, Amaia; Tejler, Johan; Tullberg, Erik; Rydberg, Hanna; Sundin, Anders; Khabut, Areej; Frejd, Torbjorn; Lobsanov, Yuri D.; Rini, James M.; et al, From Biochemistry (2010), 49(44), 9518-9532, (Salomonsson et al., 2010). […] 100 nM albumin was included as a carrier to prevent protein loss at such low concentration of galectin.

Sequence of galectin-3 (P17931 whole entry): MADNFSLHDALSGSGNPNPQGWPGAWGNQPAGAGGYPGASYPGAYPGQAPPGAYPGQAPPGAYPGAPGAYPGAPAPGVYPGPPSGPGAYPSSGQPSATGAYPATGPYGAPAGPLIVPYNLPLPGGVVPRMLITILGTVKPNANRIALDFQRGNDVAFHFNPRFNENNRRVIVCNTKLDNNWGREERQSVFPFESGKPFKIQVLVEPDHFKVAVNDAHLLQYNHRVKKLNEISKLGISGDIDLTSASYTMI
Sequence of galectin-1 (P09382 whole entry): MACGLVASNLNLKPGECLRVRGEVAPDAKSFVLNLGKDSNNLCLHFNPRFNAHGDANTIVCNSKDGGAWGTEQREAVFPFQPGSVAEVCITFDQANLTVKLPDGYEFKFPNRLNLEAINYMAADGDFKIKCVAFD

SMILES | Kd [2] | other results
O=C[C@H](O)[C@@H](O)[C@@H](O)[C@H](O)CO [D-galactose] |  | affinity, times lower than lactose ([1]; relative to lactose, all galectins): 50-100 times
N#Cc1cnc(S[C@H]2O[C@H](CO)[C@H](O)[C@H](n3cc(-c4cc(F)c(F)c(F)c4)nn3)[C@H]2O)cc1Br [Example 1, 4-Bromo-5-cyano-2-pyridyl 3-deoxy-3-[4-(3,4,5-trifluorophenyl)-1H-1,2,3-triazol-1-yl]-1-thio-α-D-galactopyranoside] | 0.027 µM | Kd [3]: 2.6 µM
N#Cc1cnc(S[C@H]2O[C@H](CO)[C@H](O)[C@H](n3cc(-c4cc(F)c(F)c(F)c4)nn3)[C@H]2O)cc1Cl [Example 2, 4-Chloro-5-cyano-2-pyridyl 3-deoxy-3-[4-(3,4,5-trifluorophenyl)-1H-1,2,3-triazol-1-yl]-1-thio-α-D-galactopyranoside] | 0.057 µM | 
OC[C@H]1O[C@H](Sc2ccnc(Cl)c2)[C@H](O)[C@@H](n2cc(-c3cc(F)c(F)c(F)c3)nn2)[C@H]1O [Example 3, 2-Chloro-4-pyridyl 3-deoxy-3-[4-(3,4,5-trifluorophenyl)-1H-1,2,3-triazol-1-yl]-1-thio-α-D-galactopyranoside] | 0.086 µM | 
N#Cc1ncc(Cl)cc1S[C@H]1O[C@H](CO)[C@H](O)[C@H](n2cc(-c3cc(F)c(F)c(F)c3)nn2)[C@H]1O [Example 4, 5-Chloro-2-cyano-3-pyridyl 3-deoxy-3-[4-(3,4,5-trifluorophenyl)-1H-1,2,3-triazol-1-yl]-1-thio-α-D-galactopyranoside] | 0.029 µM | 
N#Cc1ncc(S[C@H]2O[C@H](CO)[C@H](O)[C@H](n3cc(-c4cc(F)c(F)c(F)c4)nn3)[C@H]2O)cc1Br [Example 5, 5-Bromo-6-cyano-3-pyridyl 3-deoxy-3-[4-(3,4,5-trifluorophenyl)-1H-1,2,3-triazol-1-yl]-1-thio-α-D-galactopyranoside] | 0.022 µM | 
N#Cc1ncc(Br)cc1S[C@H]1O[C@H](CO)[C@H](O)[C@H](n2cc(-c3cc(F)c(F)c(F)c3)nn2)[C@H]1O [Example 6, 5-Bromo-2-cyano-3-pyridyl 3-deoxy-3-[4-(3,4,5-trifluorophenyl)-1H-1,2,3-triazol-1-yl]-1-thio-α-D-galactopyranoside] | 0.022 µM | 
OC[C@H]1O[C@H](Sc2cc(Cl)ccn2)[C@H](O)[C@@H](n2cc(-c3cc(F)c(F)c(F)c3)nn2)[C@H]1O [Example 7, 4-Chloro-2-pyridyl 3-deoxy-3-[4-(3,4,5-trifluorophenyl)-1H-1,2,3-triazol-1-yl]-1-thio-α-D-galactopyranoside] | 0.12 µM | Kd [3]: 6.9 µM
OC[C@H]1O[C@H](Sc2cncc(Cl)c2)[C@H](O)[C@@H](n2cc(-c3cc(F)c(Cl)c(F)c3)nn2)[C@H]1O [Example 9, 5-Chloro-3-pyridyl 3-deoxy-3-[4-(4-chloro-3,5-difluorophenyl)-1H-1,2,3-triazol-1-yl]-1-thio-α-D-galactopyranoside] | 0.022 µM | 
N#Cc1ncc(S[C@H]2O[C@H](CO)[C@H](O)[C@H](n3cc(-c4cc(F)c(Cl)c(F)c4)nn3)[C@H]2O)cc1Cl [Example 10, 5-Chloro-6-cyano-3-pyridyl 3-deoxy-3-[4-(4-chloro-3,5-difluorophenyl)-1H-1,2,3-triazol-1-yl]-1-thio-α-D-galactopyranoside] | 0.018 µM | 
N#Cc1ncc(Br)cc1S[C@H]1O[C@H](CO)[C@H](O)[C@H](n2cc(-c3cc(F)c(Cl)c(F)c3)nn2)[C@H]1O [Example 11, 5-Bromo-2-cyano-3-pyridyl 3-deoxy-3-[4-(4-chloro-3,5-difluorophenyl)-1H-1,2,3-triazol-1-yl]-1-thio-α-D-galactopyranoside] | 0.011 µM | 
N#Cc1ncc(S[C@H]2O[C@H](CO)[C@H](O)[C@H](n3cc(-c4cc(F)c(Cl)c(F)c4)nn3)[C@H]2O)cc1Br [Example 12, 5-Bromo-6-cyano-3-pyridyl 3-deoxy-3-[4-(4-chloro-3,5-difluorophenyl)-1H-1,2,3-triazol-1-yl]-1-thio-α-D-galactopyranoside] | 0.016 µM | Kd [3]: 7 µM
N#Cc1ncc(Cl)cc1S[C@H]1O[C@H](CO)[C@H](O)[C@H](n2cc(-c3cc(F)c(Cl)c(F)c3)nn2)[C@H]1O [Example 13, 5-Chloro-2-cyano-3-pyridyl 3-deoxy-3-[4-(4-chloro-3,5-difluorophenyl)-1H-1,2,3-triazol-1-yl]-1-thio-α-D-galactopyranoside] | 0.011 µM | 
N#Cc1c(F)cc(-c2cn([C@@H]3[C@@H](O)[C@@H](Sc4cncc(Cl)c4)O[C@H](CO)[C@@H]3O)nn2)cc1F [Example 14, 5-Chloro-3-pyridyl 3-deoxy-3-[4-(4-cyano-3,5-difluorophenyl)-1H-1,2,3-triazol-1-yl]-1-thio-α-D-galactopyranoside] | 0.18 µM | 
OC[C@H]1O[C@H](Sc2cncc(Cl)c2)[C@H](O)[C@@H](n2cc(-c3cc(F)c(C(F)(F)F)c(F)c3)nn2)[C@H]1O [Example 15, 5-Chloro-3-pyridyl 3-deoxy-3-[4-(3,5-difluoro-4-trifluoromethyl-phenyl)-1H-1,2,3-triazol-1-yl]-1-thio-α-D-galactopyranoside] | 0.097 µM | 
Cc1c(F)cc(-c2cn([C@@H]3[C@@H](O)[C@@H](Sc4cncc(Cl)c4)O[C@H](CO)[C@@H]3O)nn2)cc1F [Example 16, 5-Chloro-3-pyridyl 3-deoxy-3-[4-(3,5-difluoro-4-methylphenyl)-1H-1,2,3-triazol-1-yl]-1-thio-α-D-galactopyranoside] | 0.018 µM | 
OC[C@H]1O[C@H](Sc2cncc(Cl)c2)[C@H](O)[C@@H](n2cc(-c3cc(F)c(Br)c(F)c3)nn2)[C@H]1O [Example 17, 5-Chloro-3-pyridyl 3-deoxy-3-[4-(4-bromo-3,5-difluorophenyl)-1H-1,2,3-triazol-1-yl]-1-thio-α-D-galactopyranoside] | 0.028 µM | 
OC[C@H]1O[C@H](Sc2cncc(Cl)c2)[C@H](O)[C@@H](n2cc(-c3cc(F)c(Cl)c(Cl)c3)nn2)[C@H]1O [Example 18, 5-Chloro-3-pyridyl 3-deoxy-3-[4-(3,4-dichloro-5-fluorophenyl)-1H-1,2,3-triazol-1-yl]-1-thio-α-D-galactopyranoside] | 0.027 µM | 
OC[C@H]1O[C@H](Sc2cncc(Cl)c2)[C@H](O)[C@@H](n2cc(-c3ccc(Cl)c(F)c3)nn2)[C@H]1O [Example 19, 5-Chloro-3-pyridyl 3-deoxy-3-[4-(4-chloro-3-fluorophenyl)-1H-1,2,3-triazol-1-yl]-1-thio-α-D-galactopyranoside] | 0.034 µM | 
OC[C@H]1O[C@H](Sc2ccc(Cl)c(Cl)c2)[C@H](O)[C@@H](n2cc(-c3cncc(F)c3)nn2)[C@H]1O [Example 20, 3,4-Dichlorophenyl 3-deoxy-3-[4-(5-fluoro-3-pyridyl)-1H-1,2,3-triazol-1-yl]-1-thio-α-D-galactopyranoside] | 0.75 µM | 
OC[C@H]1O[C@H](Sc2cncc(Cl)c2)[C@H](O)[C@@H](n2cc(-c3ccc(Cl)c(Cl)c3)nn2)[C@H]1O [Example 21, 5-Chloro-3-pyridyl 3-deoxy-3-[4-(3,4-dichlorophenyl)-1H-1,2,3-triazol-1-yl]-1-thio-α-D-galactopyranoside] | 0.031 µM | 
OC[C@H]1O[C@H](Sc2ccc(Cl)c(Cl)c2)[C@H](O)[C@@H](n2cc(-c3cncc(Cl)c3)nn2)[C@H]1O [Example 22, 3,4-Dichlorophenyl 3-deoxy-3-[4-(5-chloro-3-pyridyl)-1H-1,2,3-triazol-1-yl]-1-thio-α-D-galactopyranoside] | 0.694 µM | 
OC[C@H]1O[C@@H](O[C@H]2[C@H](O)[C@@H](O)C(O)O[C@@H]2CO)[C@H](O)[C@@H](O)[C@H]1O (some centres unmarked) [lactose] |  | Kd ([1]; reviewed by Leffler 2001, Leffler et al. 2004, read-out: Kd, all galectins): 500 to 1000 µM
